pIC50: −log10 of the molar value.
What was measured:
MDA-MB-468 = assay: Antiproliferative activity against human MDA-MB-468 cells assessed as reduction in cell growth incubated for 72 hrs by MTT assay; settings: MDA-MB-468, 72 h
MDA-MB-453 = assay: Antiproliferative activity against human MDA-MB-453 cells assessed as reduction in cell growth incubated for 72 hrs by MTT assay; settings: MDA-MB-453, 72 h
MDA-MB-231 = assay: Antiproliferative activity against human MDA-MB-231 cells assessed as reduction in cell growth incubated for 72 hrs by MTT assay; settings: MDA-MB-231, 72 h
[1] = target: Hepatocyte growth factor receptor (Homo sapiens, UniProt P08581); assay: Inhibition of c-Met (unknown origin) using Poly(Glu:Tyr)(4:1) and ATP as substrate incubated for 45 mins by Kinase-Glo Max reagent based luminescence analysis
[2] = target: T1, Protein deacetylase HDAC6 (Homo sapiens) (UniProt Q9UBN7); settings: dose 1000.0 nM, time 60.0 min
T1 sequence (whole entry): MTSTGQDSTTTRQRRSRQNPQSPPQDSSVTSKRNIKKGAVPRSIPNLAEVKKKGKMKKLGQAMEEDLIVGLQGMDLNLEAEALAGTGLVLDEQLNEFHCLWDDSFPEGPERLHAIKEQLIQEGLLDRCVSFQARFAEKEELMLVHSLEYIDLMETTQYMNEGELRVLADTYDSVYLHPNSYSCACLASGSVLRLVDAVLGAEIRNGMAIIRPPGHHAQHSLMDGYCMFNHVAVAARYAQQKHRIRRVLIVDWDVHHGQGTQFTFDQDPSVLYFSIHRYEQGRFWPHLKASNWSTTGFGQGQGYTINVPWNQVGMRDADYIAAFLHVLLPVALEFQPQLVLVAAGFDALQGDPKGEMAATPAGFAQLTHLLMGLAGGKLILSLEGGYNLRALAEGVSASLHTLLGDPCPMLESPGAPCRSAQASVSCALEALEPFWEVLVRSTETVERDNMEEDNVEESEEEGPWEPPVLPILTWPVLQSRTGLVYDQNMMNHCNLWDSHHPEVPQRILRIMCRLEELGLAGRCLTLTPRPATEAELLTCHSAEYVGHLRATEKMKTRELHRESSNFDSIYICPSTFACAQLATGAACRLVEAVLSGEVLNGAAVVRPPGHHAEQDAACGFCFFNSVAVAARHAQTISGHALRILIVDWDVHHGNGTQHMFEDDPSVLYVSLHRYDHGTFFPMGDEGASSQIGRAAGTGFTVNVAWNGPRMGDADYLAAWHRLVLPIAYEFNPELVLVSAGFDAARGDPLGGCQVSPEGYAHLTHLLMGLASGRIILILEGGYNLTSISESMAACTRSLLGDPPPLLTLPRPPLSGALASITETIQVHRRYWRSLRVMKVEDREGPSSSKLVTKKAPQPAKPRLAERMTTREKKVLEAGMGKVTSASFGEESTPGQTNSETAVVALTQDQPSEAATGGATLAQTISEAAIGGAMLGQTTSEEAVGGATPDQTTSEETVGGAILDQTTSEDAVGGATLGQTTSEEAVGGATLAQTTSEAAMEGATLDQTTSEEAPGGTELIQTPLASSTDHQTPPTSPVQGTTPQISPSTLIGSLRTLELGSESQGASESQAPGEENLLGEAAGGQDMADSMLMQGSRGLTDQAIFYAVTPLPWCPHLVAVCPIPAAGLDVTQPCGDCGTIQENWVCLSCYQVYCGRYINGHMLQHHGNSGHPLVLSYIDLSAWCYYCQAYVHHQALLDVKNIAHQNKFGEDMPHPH

Sequence of Hepatocyte growth factor receptor (P08581 whole entry): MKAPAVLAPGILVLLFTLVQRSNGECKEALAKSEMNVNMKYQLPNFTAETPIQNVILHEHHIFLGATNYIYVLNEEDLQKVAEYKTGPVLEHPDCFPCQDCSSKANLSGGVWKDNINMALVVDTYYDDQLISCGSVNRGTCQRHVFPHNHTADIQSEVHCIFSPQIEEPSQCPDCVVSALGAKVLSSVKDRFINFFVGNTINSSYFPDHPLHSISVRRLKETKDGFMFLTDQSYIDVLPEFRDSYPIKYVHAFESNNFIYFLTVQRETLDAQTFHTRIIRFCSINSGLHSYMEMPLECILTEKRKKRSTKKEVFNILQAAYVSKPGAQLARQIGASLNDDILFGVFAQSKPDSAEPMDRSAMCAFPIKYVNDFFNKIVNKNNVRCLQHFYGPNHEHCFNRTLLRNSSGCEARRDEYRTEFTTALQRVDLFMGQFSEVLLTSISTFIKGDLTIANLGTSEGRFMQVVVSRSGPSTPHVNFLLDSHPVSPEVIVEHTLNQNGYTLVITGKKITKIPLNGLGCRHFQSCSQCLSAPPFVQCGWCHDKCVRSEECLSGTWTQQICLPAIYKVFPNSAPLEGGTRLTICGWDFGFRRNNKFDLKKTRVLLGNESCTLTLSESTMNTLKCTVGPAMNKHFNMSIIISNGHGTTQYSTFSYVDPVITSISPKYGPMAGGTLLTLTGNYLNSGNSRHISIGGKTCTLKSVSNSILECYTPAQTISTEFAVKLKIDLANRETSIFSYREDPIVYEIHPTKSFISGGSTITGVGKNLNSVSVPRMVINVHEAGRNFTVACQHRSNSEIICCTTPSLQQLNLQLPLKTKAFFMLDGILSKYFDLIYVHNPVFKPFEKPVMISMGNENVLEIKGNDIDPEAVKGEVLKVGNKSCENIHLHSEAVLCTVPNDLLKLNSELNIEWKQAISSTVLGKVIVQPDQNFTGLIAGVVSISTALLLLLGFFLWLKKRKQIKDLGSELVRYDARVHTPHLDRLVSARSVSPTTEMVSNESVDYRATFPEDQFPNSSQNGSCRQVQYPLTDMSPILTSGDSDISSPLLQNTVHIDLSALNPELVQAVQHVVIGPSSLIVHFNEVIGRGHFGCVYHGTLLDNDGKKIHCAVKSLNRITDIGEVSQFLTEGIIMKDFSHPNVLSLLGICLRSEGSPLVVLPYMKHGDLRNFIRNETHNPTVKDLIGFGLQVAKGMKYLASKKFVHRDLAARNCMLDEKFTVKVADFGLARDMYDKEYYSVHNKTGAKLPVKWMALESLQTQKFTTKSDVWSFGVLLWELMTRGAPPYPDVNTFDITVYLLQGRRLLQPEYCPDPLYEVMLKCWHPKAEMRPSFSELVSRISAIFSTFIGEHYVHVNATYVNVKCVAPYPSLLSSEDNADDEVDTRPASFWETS

SMILES	pIC50 (MDA-MB-468)	pIC50 (MDA-MB-453)	pIC50 (MDA-MB-231)	pIC50 [1]	inhibition [2]
CC(c1ccc2ncccc2c1)n1nnc2ncc(N3CCN(Cc4ccc(C(=O)Nc5ccccc5N)cc4)CC3)nc21 (stereo not given)	4.89	4.80	4.81		
CC(c1ccc2ncccc2c1)n1nnc2ncc(N3CCN(Cc4ccc(C(=O)Nc5ccc(F)cc5N)cc4)CC3)nc21 (stereo not given)	5.39	5.20	5.23		
C[C@@H](c1ccc2nccn2c1)n1nnc2ncc(-c3cnn(C)c3)nc21 [SAVOLITINIB]				8.85	
Nc1cc(F)ccc1NC(=O)c1ccc(CNC(=O)/C=C/c2cccnc2)cc1 [TUCIDINOSTAT]	5.46	6.20	5.76		2.6%
CC(c1ccc2ncccc2c1)n1nnc2ncc(N3CCN(Cc4ccc(CC(=O)Nc5ccc(F)cc5N)cc4)CC3)nc21 (stereo not given)	5.41	5.23	5.19		
CC(c1ccc2ncccc2c1)n1nnc2ncc(N3CCN(CCCC(=O)Nc4ccc(F)cc4N)CC3)nc21 (stereo not given)	4.92	4.51	4.57		
CC(c1ccc2ncccc2c1)n1nnc2ncc(N3CCN(Cc4ccc(CC(=O)Nc5ccccc5N)cc4)CC3)nc21 (stereo not given)	5.20	5.05	5.06		

Reference: ChEMBL document CHEMBL6127065, “Design and Synthesis of c-Met and HDAC Dual Inhibitors for the Treatment of Breast Cancer” (ACS Med Chem Lett, 2024)
